Data as given in publication PMC11311870, “Catalytic Mode and Product Specificity of an α-Agarase Reveal Its Direct Catalysis for the Production of Agarooligosaccharides” (Foods, 2024).

Target: T1, Cm-AGA (Catenovulum maritimum, UniProt A0A0J8H064)
T1 construct: gene XM47_01860
T1 sequence (A0A0J8H064 27-1466): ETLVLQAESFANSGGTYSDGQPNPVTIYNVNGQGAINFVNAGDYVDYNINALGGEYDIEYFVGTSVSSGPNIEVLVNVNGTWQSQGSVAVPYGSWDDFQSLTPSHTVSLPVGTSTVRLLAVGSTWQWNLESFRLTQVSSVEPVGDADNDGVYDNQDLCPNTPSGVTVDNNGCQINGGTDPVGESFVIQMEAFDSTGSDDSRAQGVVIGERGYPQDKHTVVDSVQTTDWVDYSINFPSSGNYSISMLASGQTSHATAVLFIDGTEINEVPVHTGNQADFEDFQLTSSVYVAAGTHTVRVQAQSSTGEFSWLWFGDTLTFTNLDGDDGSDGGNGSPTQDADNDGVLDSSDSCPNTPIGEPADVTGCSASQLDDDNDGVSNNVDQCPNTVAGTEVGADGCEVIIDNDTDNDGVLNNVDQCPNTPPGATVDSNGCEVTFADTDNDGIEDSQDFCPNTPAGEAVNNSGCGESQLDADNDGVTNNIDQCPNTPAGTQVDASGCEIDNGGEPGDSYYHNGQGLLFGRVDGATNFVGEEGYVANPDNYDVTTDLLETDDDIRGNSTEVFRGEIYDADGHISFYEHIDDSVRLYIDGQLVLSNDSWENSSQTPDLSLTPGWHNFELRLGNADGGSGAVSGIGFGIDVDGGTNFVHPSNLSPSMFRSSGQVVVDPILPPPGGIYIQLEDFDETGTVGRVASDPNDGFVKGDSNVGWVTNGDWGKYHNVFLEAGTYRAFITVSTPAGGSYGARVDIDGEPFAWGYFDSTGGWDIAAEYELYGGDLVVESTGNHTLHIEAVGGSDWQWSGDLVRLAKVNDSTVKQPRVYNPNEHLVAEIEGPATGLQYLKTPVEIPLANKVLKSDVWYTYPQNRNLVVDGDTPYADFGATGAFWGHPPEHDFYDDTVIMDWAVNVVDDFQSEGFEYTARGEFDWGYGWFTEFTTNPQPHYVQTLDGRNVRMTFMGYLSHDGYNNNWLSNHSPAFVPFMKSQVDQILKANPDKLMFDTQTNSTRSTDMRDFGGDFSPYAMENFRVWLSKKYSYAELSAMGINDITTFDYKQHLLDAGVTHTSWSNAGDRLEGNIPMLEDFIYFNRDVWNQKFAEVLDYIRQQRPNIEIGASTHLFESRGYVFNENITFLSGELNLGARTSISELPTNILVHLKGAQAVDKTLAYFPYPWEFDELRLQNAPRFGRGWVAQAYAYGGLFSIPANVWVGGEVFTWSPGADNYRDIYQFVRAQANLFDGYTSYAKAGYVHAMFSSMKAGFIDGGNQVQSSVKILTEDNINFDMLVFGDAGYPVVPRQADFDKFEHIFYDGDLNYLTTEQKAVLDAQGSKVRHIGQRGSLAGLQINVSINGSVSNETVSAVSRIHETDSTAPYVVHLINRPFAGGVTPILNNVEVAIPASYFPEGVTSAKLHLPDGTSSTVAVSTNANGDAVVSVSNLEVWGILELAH
Experiment: HPAEC-PAD product analysis
Assay type: biochemical
Settings: pH not stated for this reaction (in water); 35 °C, 24 h; 5 mg/mL stock

SMILES: OC[C@H]1O[C@@H](O[C@H]2[C@H]3OC[C@@H]2O[C@@H](O[C@H]2[C@@H](O)[C@@H](CO)O[C@@H](O[C@H]4[C@H]5OC[C@@H]4O[C@@H](O[C@H]4[C@@H](O)[C@@H](CO)OC(O)[C@@H]4O)[C@H]5O)[C@@H]2O)[C@H]3O)[C@H](O)[C@@H](O[C@@H]2O[C@H]3CO[C@@H]([C@@H]2O)[C@@H]3O)[C@H]1O (stereo partly shown) [NA6, neoagarohexaose]
- HPAEC-PAD product analysis: the products of Cm-AGA-mediated NA6 hydrolysis were relatively complex (Figure 8D)
